Laboratory results taken from US20150141411A1, “SUBSTITUTED 3,4-DIHYDRO-2H-PYRIDO[1,2-A]PYRAZINE-1,6-DIONE DERIVATIVES USEFUL FOR THE TREATMENT OF (INTER ALIA) ALZHEIMER'S DISEASE” (Janssen Pharmaceuticals, Inc., priority 2012, published 2015).

Legend:
[1] = molecular target: T1, γ-secretase (Homo sapiens, UniProt P49768); assay: Screening for γ-secretase-modulating activity: Aβ42 in supernatant of SKNBE2 cells carrying hAPP 695 wild type (Alphalisa); assay type: cell-based; settings: SKNBE2 human neuroblastoma cells carrying hAPP 695 wild type, overnight incubation, Aβ42 in cell supernatant
T1 construct: endogenous in cells; host or cells: SKNBE2 human neuroblastoma cells (carrying hAPP 695 wild type as substrate)
In short: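 SKNBE2 neuroblastoma cells expressing wild-type hAPP 695 plated at 10^4 cells/well in Ultraculture with test compound, incubated overnight at 37° C. Aβ42 (C-terminal/N-terminal antibody pair) and Aβtotal (N-terminal/4G8 pair) in supernatant quantified by AlphaLISA. IC50 from 4-parameter fit of percent of compound-free control.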

[2] = test system: Aβ40; assay: In vivo efficacy: brain soluble Aβ40 in non-transgenic rodents (MSD electrochemiluminescence multiplex); set-up: species or system mouse; settings: dose 30 mg/kg oral dosing, brain soluble fraction, animals sacrificed after 4 h; for response vs control in vivo at 30 mg/kg: Mus musculus, po, 4 h, untreated animals (Ctrl) set at 100, read-out: Aβ40 (% vs Ctrl)_Mean; for Aβ40 (% vs Ctrl)_Mean: untreated animals (Ctrl) set at 100, 30 mg/kg
Excerpt: (§1) To determine whether acute administration of an Aβ42 lowering agent would reduce Aβ42 levels in vivo, non-transgenic rodents, e.g. mice or rats were used. Animals treated with the Aβ42 lowering agent were examined and compared to those untreated or treated with vehicle and brain levels of soluble Aβ42, Aβ40, Aβ38, and Aβ37 were quantitated by Meso Scale Discovery's (MSD) electrochemiluminescence detection technology. Treatment periods varied from hours (h) to days and were adjusted based on the results of the Aβ42 lowering once a time course of onset of effect could be established.
(§2) A typical protocol for measuring Aβ42 lowering in vivo is shown but it is only one of many variations that could be used to optimize the levels of detectable Aβ. For example, Aβ42 lowering compounds were formulated in 20% of Captisol® (a sulfo-butyl ether of β-cyclodextrin) in water or 20% hydroxypropyl βcyclodextrin. The Aβ42 lowering agents were administered as a single oral dose or by any acceptable route of administration to overnight fasted animals. After 4 h, the animals were sacrificed and Aβ42 levels were analysed.
(§3) Blood was collected by decapitation and exsanguinations in EDTA-treated collection tubes. Blood was centrifuged at 1900 g for 10 minutes (min) at 4° C. and the plasma recovered and flash frozen for later analysis. The brain was removed from the cranium and hindbrain. The cerebellum was removed and the left and right hemisphere were separated. The left hemisphere was stored at −18° C. for quantitative analysis of test compound levels. The right hemisphere was rinsed with phosphate-buffered saline (PBS) buffer and immediately frozen on dry ice and stored at −80° C. until homogenization for biochemical assays.
(§4) Mouse brains from non-transgenic animals were resuspended in 8 volumes of 0.4% DEA (diethylamine)/50 mM NaCl containing protease inhibitors (Roche-11873580001 or 04693159001) per gram of tissue, e.g. for 0.158 g brain, add 1.264 ml of 0.4% DEA. All samples were homogenized in the FastPrep-24 system (MP Biomedicals) using lysing matrix D (MPBio #6913-100) at 6 m/s for 20 seconds. Homogenates were centrifuged at 20800×g for 5 min and supernatants collected. Supernatants were centrifuged at 221.300×g for 50 min. The resulting high speed supernatants were then transferred to fresh eppendorf tubes. Nine parts of supernatant were neutralized with 1 part 0.5 M Tris-HCl pH 6.8 and used to quantify Aβ.
(§5) To quantify the amount of Aβ42, Aβ40, Aβ38, and Aβ37 in the soluble fraction of the brain homogenates, simultaneous specific detection of Aβ42, Aβ40, Aβ38, and Aβ37 was performed using MSD's electro-chemiluminescence multiplex detection technology. In this assay purified monoclonal antibodies specific for Abeta37 (JRD/Aβ37/3), Abeta38 (J&JPRD/Aβ38/5), Abeta40 (JRF/cAβ40/28), and Abeta42 (JRF/cAβ42/26) were coated on MSD 4-plex plates. Briefly, the standards (a dilution of synthetic Aβ42, Aβ40, Aβ38, and Aβ37) were prepared in 1.5 ml Eppendorf tube in Ultraculture, with final concentrations ranging from 10000 to 0.3 pg/m. The samples and standards were co-incubated with Sulfo-tag labelled JRF/rAβ/2 antibody to the N-terminus of Aβ as detector antibody. 50 μl of conjugate/sample or conjugate/standards mixtures were then added to the antibody-coated plate. The plate was allowed to incubate overnight at 4° C. in order to allow formation of the antibody-amyloid complex. Following this incubation and subsequent wash steps the assay was finished by adding read buffer according to the manufacturer's instructions (Meso Scale Discovery, Gaitherburg, Md.).
(§6) The SULFO-TAG emits light upon electrochemical stimulation initiated at the electrode. MSD Sector instrument SI6000 was used for signal read-out.
The results are shown in Table 5 (dose 30 mg/kg oral dosing) (value for untreated animals as control (Ctrl) was set at 100): […]

[3] = test system: Aβ42; assay: In vivo efficacy: brain soluble Aβ42 in non-transgenic rodents (MSD electrochemiluminescence multiplex); set-up: species or system mouse; settings: dose 30 mg/kg oral dosing, brain soluble fraction, animals sacrificed after 4 h; for response vs control in vivo at 30 mg/kg: Mus musculus, po, 4 h, untreated animals (Ctrl) set at 100, read-out: Aβ42 (% vs Ctrl)_Mean
Excerpt: as §1, §2, §3, §4, §5, §6
In this model a Aβ42 lowering compared to untreated animals would be advantageous, in particular a Aβ42 lowering with at least 10%, more in particular a Aβ42 lowering with at least 20%. […]

Compound	IC50 [1] [nM]	response vs control in vivo at 30 mg/kg [2] [%]	response vs control in vivo at 30 mg/kg [3] [%]	Aβ40 (% vs Ctrl)_Mean [2] [% vs Ctrl]	Aβ42 (% vs Ctrl)_Mean ([3]; untreated animals (Ctrl) set at 100, 30 mg/kg) [% vs Ctrl]
Cc1cn(-c2ccc3n(c2=O)C[C@@H](C)N(Cc2cc(N4CCOC(C(F)(F)F)C4)cc(C(F)(F)F)c2)C3=O)cn1 (mixture of isomers) [compound 153]	60	128	100		
Cc1cn(-c2ccc3n(c2=O)CCN(C(C)c2cccc(Cl)c2Cl)C3=O)cn1 (single isomer, unassigned) [10a]	140				
Cc1cn(-c2ccc3n(c2=O)CC(C)N(C(C)c2cc(C(F)(F)F)cc(C(F)(F)F)c2)C3=O)cn1.Cl (single isomer, unassigned) [compound 111]	70		35	52	
Cc1cn(-c2ccc3n(c2=O)CC(C)N(C(C)c2cc(C(F)(F)F)cc(C(F)(F)F)c2)C3=O)cn1.Cl (single isomer, unassigned) [compound 112]	70			82	55
CCC(c1cc(OC)cc(C(F)(F)F)c1)N1C(=O)c2ccc(-n3cnc(C)c3)c(=O)n2C[C@H]1C (single isomer, unassigned) [compound 141]	110	122	85		
CCOc1cc(C(C)N2C(=O)c3ccc(-n4cnc(C)c4)c(=O)n3C[C@H]2C)cc(C(F)(F)F)c1 (single isomer, unassigned) [compound 143]	60	129	123		
Cc1cn(-c2ccc3n(c2=O)CCN(C(C)c2c[nH]c4cc(F)c(Cl)cc24)C3=O)cn1 (single isomer, unassigned) [compound 183]	30	133	97		
Cc1cn(-c2ccc3n(c2=O)CCN(C(C)c2cn(C)c4cc(F)c(Cl)cc24)C3=O)cn1 (single isomer, unassigned) [compound 185]	20	89	68		
Cc1cn(-c2ccc3n(c2=O)CC(C)N(C(C)c2cn(C)c4cc(F)c(Cl)cc24)C3=O)cn1 (single isomer, unassigned) [compound 189]	220	118	116		
CCn1cc(C(C)N2C(=O)c3ccc(-n4cnc(C)c4)c(=O)n3CC2C)c2cc(Cl)c(F)cc21 (single isomer, unassigned) [compound 192]	10	44	39		
Cc1cn(-c2ccc3n(c2=O)CC(C)N(C(C)c2cn(C(C)C)c4cc(F)c(Cl)cc24)C3=O)cn1 (single isomer, unassigned) [compound 194]	10	43	39		
Cc1cn(-c2ccc3n(c2=O)CC(C)N(C(C)c2c[nH]c4c(F)cc(Cl)cc24)C3=O)cn1 (single isomer, unassigned) [compound 219]	20	95	76		
CCC1Cn2c(ccc(-n3cnc(C)c3)c2=O)C(=O)N1Cc1cc(C(F)(F)F)cc(C(F)(F)F)c1.Cl (stereo not shown) [compound 1]	110				
Cc1cn(-c2ccc3n(c2=O)C[C@@H](C)N(Cc2ccc(Cl)c(Cl)c2)C3=O)cn1 [compound 2]	170				
Cc1cn(-c2ccc3n(c2=O)CC(C)N(Cc2cc(C(F)(F)F)cc(C(F)(F)F)c2)C3=O)cn1 (stereo not shown) [compound 3]	100	85	51		
Cc1cn(-c2ccc3n(c2=O)CCN(Cc2cccc(-c4ccccc4)c2)C3=O)cn1 [compound 5]	80				
Cc1cn(-c2ccc3n(c2=O)CC(C)N(Cc2cc(OCC4CC4)cc(C(F)(F)F)c2)C3=O)cn1.Cl (stereo not shown) [compound 6]	70	108	73		

Compound	IC50 [1] [nM]	response vs control in vivo at 30 mg/kg [2] [%]	response vs control in vivo at 30 mg/kg [3] [%]	Aβ40 (% vs Ctrl)_Mean [2] [% vs Ctrl]	Aβ42 (% vs Ctrl)_Mean ([3]; untreated animals (Ctrl) set at 100, 30 mg/kg) [% vs Ctrl]
CCc1cn(-c2ccc3n(c2=O)CC(C)N(Cc2cc(C(F)(F)F)cc(C(F)(F)F)c2)C3=O)cn1.Cl (stereo not shown) [compound 7]	140				
Cc1cn(-c2ccc3n(c2=O)CCN(Cc2ccccc2C)C3=O)cn1 [compound 22]	2570				
Cc1cn(-c2ccc3n(c2=O)C[C@@H](C)N(Cc2cccc(C(C)(C)C)c2)C3=O)cn1 [compound 23]	140				
Cc1cn(-c2ccc3n(c2=O)C[C@@H](C)N(Cc2ccc(C(F)(F)F)c(C(F)(F)F)c2)C3=O)cn1 [compound 46]	140				
Cc1cn(-c2ccc3n(c2=O)C[C@@H](C)N(CCc2cc(C(F)(F)F)cc(C(F)(F)F)c2)C3=O)cn1 [compound 50]	40	112	99		
Cc1cc(CN2C(=O)c3ccc(-n4cnc(C)c4)c(=O)n3C[C@H]2C)cc(C(F)(F)F)c1 [compound 59]	180				
Cc1cn(-c2ccc3n(c2=O)C[C@@H](C)N(Cc2ccc(Cl)c(C(F)(F)F)c2)C3=O)cn1 [compound 62]	130				
Cc1cn(-c2ccc3n(c2=O)C[C@@H](C)N(Cc2cc(Cl)cc(C(F)(F)F)c2)C3=O)cn1 [compound 63]	190				
Cc1cn(-c2ccc3n(c2=O)CCN(Cc2ccc(Cl)c(C(F)(F)F)c2)C3=O)cn1 [compound 65]	370				
Cc1cn(-c2ccc3n(c2=O)C[C@@H](C)N(Cc2cc(N4CCC(C)CC4)ccc2Cl)C3=O)cn1 [compound 80]	100	164	148		
Cc1cn(-c2ccc3n(c2=O)C[C@@H](C)N(Cc2cc(N4CCCC4)ccc2Cl)C3=O)cn1 [compound 82]	110	125	103		
Cc1cn(-c2ccc3n(c2=O)CCN(Cc2ccc(C)c(N4CCCCC4)c2)C3=O)cn1 [compound 99]	170				
Cc1cn(-c2ccc3n(c2=O)C[C@@H](C)N(Cc2cc(CC4CC4)cc(C(F)(F)F)c2)C3=O)cn1 [compound 110]	40	103	88		
Cc1cn(-c2ccc3n(c2=O)C[C@@H](C)N(Cc2cc(C4CC4)cc(C(F)(F)F)c2)C3=O)cn1 [compound 116]	80	105	75		
C[C@@H]1Cn2c(ccc(-n3cnc(Cl)c3)c2=O)C(=O)N1Cc1cc(C(F)(F)F)cc(C(F)(F)F)c1 [compound 118]	190	115	92		
Cc1cn(-c2ccc3n(c2=O)C[C@@H](C)N(Cc2cc(OC(C)C)nc(C(F)(F)F)c2)C3=O)cn1 [compound 128]	90	116	60		
